These results are taken from US12576167B2, “Gadolinium-based compound, method for producing same, and MRI contrast agent containing same” (KYUNGPOOK NATIONAL UNIVERSITY INDUSTRY-ACADEMIC COOPERATION …, priority 2020, dated 2026).

Data set [1] in a line: Measurement of relaxivity (r1, r2), phantom in 3 T MRI. It is filed as physicochemical. Conditions: 0.0625-1 mM in tertiary distilled water, linear regression, in mM-1 s-1 (unit assumed). As for the experimental part:
Relaxivity (r1, r2) of each of Gd-DO3A-Ga synthesized using the method according to Present Example 2, and Gadovist® and Dotarem® as commercial cyclic contrast agents as comparative groups.
Specifically, a phantom was prepared by diluting the gadolinium complex to 5 concentrations (0.0625, 0.125, 0.25, 0.5, 1 mM) using tertiary distilled water, and then T1 and T2 relaxation times thereof were measured in 3 T MRI. Thus, R (relaxivity=1/T) thereof at each of the concentrations was calculated and a result of the relaxivity of the gadolinium complex was obtained via linear regression analysis. (See following Table 1 and FIG. 5)

Data set [2] deals with amyloid beta polymer (oligomeric Aβ) (Homo sapiens, UniProt P05067). Kind of data set: Phantom test for targeting ability toward amyloid beta polymer, 9.4 T MR. The class given is binding. Conditions: amyloid beta polymer incubated with contrast agent at 37° C. for 24 hours, washed pellet, FIG. 7. As for the experimental part: HFIP (221.5 μl) was added to amyloid beta (1 mg, 1 mM) to produce a mixture which in turn was shaken for 1 hour at room temperature using a shaker to remove preaggregation. Next, the amyloid beta from which the pre-aggregation was removed was dried. Then, DMSO (221.5 μl) was added thereto to adjust a concentration thereof to 1 mM. Then, a suspension thereof was produced using a mixer and a sonicator, and PBS (1×, pH 7.4, 878.5 μl) was added to the suspension to adjust a concentration of the suspension to 0.2 mM. Thereafter, the suspension was subjected to incubation for 4 days at 37° C. using a shaker. Then, amyloid beta polymer (oligomeric Aβ) that has been polymerized was dispensed by 200 μl. Then, a further mixed solution in which the compound Gd-DO3A-Ga was dissolved in PBS at a concentration of 2 mM was added thereto at 20 μl amount. A further mixed solution in which the commercial contrast agent (Gadovist®) was dissolved in PBS at a concentration of 2 mM was added thereto at 20 μl amount. Then, each of two resulting mixtures was incubated at 37° C. for 24 hours using a shaker. After completion of the incubation, a supernatant was removed therefrom via centrifugation, and then the amyloid beta polymer was washed with PBS, and then 200 μl of PBS:DMSO=9:1 solution was added to a pellet thereof to prepare MRI phantom samples. […]
Sequence of amyloid beta polymer (oligomeric Aβ) (P05067 672-713 limits assumed): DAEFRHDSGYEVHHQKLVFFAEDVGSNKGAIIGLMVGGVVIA

As to `CNC[C@H](O)[C@@H](O)[C@H](O)[C@H](O)CO.O=C([O-])CN1CCN(CC(=O)[O-])CCN(CC(=O)O)CCN(CC(=O)[O-])CC1.[Gd+3]` [Dotarem ®], in data set [1], the “relaxivity r1” value is 3.40 ± 0.07 and the “relaxivity r2” value is recorded as 3.88 ± 0.16.
With `O=C([O-])CN1CCN(CC(=O)[O-])CCN([C@H](CO)[C@H](O)CO)CCN(CC(=O)[O-])CC1.[Gd+3]` (racemic) [Gadovist ®], the “MR signal intensity (contrast enhancement effect) of phantom versus control incubated only with amyloid beta polymer” value in data set [2] is reported as “no significant difference”. For the same molecule, in data set [1], the “relaxivity r1” value turned out to be 3.85 ± 0.09 and the “relaxivity r2” value came out at 4.87 ± 0.11.
